Reference: PMC2912373, “Low-Density Lipoprotein Receptor-Related Protein 1 (LRP1) Mediates Neuronal Aβ42 Uptake and Lysosomal Trafficking” (PLoS ONE, 2010)

Tested on: GT1-7 cells
Assay: FAM-Aβ42 internalization after LRP1 siRNA knockdown, FACS
Assay type: cell-based
Conditions: 500 nM FAM-Aβ42, 37°C, 4 h, 72 h after LRP1 siRNA; FACS of pronase-treated cells
Description: To rule out cell type-specific effects and artifacts due to the expression of LRP1 minireceptor, we performed similar FAM-Aβ42 uptake experiments in GT1-7 neuronal cells with reduced endogenous LRP1 levels by siRNA knockdown (Fig. 3A), and in mouse embryonic fibroblasts from both wild-type (MEF1) and LRP1 knockout mice (MEF2) (Fig. 3B). GT1-7 cells were plated and treated as indicated in the Experimental Procedures and GT1-7 and MEF cells were incubated with 500 nM of FAM-Aβ42 at 37°C for 4 h. Steady-state levels of intracellular Aβ42 were determined by flow cytometric analysis of pronase-treated cells. […]
Figure 3 LRP1 mediates internalization and accumulation of Aβ42 in GT1-7 and MEF cells. […] After 72 h, cells were treated with 500 nM FAM-Aβ42 for 4 h and intracellular Aβ42 was determined by flow cytometric analyses of pronase-treated cells as described in the Experimental Procedures. […] Wild type (MEF1) and LRP1 knockout (MEF2) fibroblasts were treated with 500 nM FAM-Aβ42 for 4 h, and intracellular Aβ42 was determined by flow cytometric analyses. ** p<0.01, t-test. n = 3. C, cell lysates from GT1-7 and MEF cells treated as in A and B, analyzed by 7.5% SDS-PAGE, and Western blotted with anti-LRP1 antibodies.
For quantification of Aβ uptake experiments, stable N2a cells were plated into 12-well plates at 16,250 cells/cm^2 and grown overnight. […]

Substance: FAM-Aβ42: FAM-Aβ42 peptide (23526) from Anaspec; amyloid-β 42 with carboxyfluorescein at the N-terminal region
- internalization of FAM-Aβ42 in cells with decreased LRP1 levels vs scrambled siRNA control: decrease
